According to US10738056B2 (Aduro BioTech, Inc., priority 2017, dated 2020):

target: Human cGAS amino acids 155-522 (Homo sapiens (Human), UniProt Q8N884); experiment: cGAS biochemical activity assay (ATP remaining, Kinase-Glo Max luminescence); conditions: human cGAS 155-522, ATP remaining (Kinase-Glo Max); read-out: cGAS IC50
Sequence (Q8N884 157-522): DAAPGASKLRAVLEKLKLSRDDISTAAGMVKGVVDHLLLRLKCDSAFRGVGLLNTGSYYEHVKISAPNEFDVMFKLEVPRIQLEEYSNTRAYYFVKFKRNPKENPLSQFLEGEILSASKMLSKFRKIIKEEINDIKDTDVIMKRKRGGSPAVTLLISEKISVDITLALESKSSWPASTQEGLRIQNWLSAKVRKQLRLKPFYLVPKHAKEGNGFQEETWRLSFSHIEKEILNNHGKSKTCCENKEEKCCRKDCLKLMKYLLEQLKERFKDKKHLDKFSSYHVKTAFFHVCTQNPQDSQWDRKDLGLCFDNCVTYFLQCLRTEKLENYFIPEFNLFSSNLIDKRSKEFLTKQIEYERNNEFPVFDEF

Row | SMILES | IC50
1 | Cc1[nH]c2c(-c3ccccc3)c(C(F)(F)F)nn2c(=O)c1-c1nnc(C2CCN(C(=O)OC(C)(C)C)CC2)o1 [Compound D1044, tert-butyl 4-(5-(5-methyl-7-oxo-3-phenyl-2-(trifluoromethyl)-4,7-dihydropyrazolo[1,5-a]pyrimidin-6-yl)-1,3,4-oxadiazol-2-yl)piperidine-1-carboxylate] | 20 to 250 µM
2 | COc1cccc(NC(=O)c2c(C)[nH]c3c(-c4ccccc4)c(S(C)(=O)=O)nn3c2=O)c1 [Compound A1126, N-(3-methoxyphenyl)-5-methyl-2-(methylsulfonyl)-7-oxo-3-phenyl-4,7-dihydropyrazolo[1,5-a]pyrimidine-6-carboxamide] | > 250 µM
3 | Cc1ccc(NC(=O)c2c(C)[nH]c3c(-c4ccccc4)c(C(F)(F)F)nn3c2=O)cc1 [Compound A1012, 5-methyl-7-oxo-3-phenyl-N-(p-tolyl)-2-(trifluoromethyl)-4,7-dihydropyrazolo[1,5-a]pyrimidine-6-carboxamide] | 20 to 250 µM
4 | COc1ccc(NC(=O)Cc2c(C)[nH]c3c(-c4ccccc4)c(C(F)(F)F)nn3c2=O)cc1 [Compound B1006, N-(4-methoxyphenyl)-2-(5-methyl-7-oxo-3-phenyl-2-(trifluoromethyl)-4,7-dihydropyrazolo[1,5-a]pyrimidin-6-yl)acetamide] | 20 to 250 µM
5 | Cc1[nH]c2c(-c3ccccc3)c(C(F)(F)F)nn2c(=O)c1C(=O)N[C@H]1CCCC[C@H]1O [Compound A1092, N-((1S,2R)-2-hydroxycyclohexyl)-5-methyl-7-oxo-3-phenyl-2-(trifluoromethyl)-4,7-dihydropyrazolo[1,5-a]pyrimidine-6-carboxamide] | 20 to 250 µM
6 | Cc1[nH]c2c(-c3ccccc3)c(C(F)(F)F)nn2c(=O)c1-c1nnc(N2CCN(C)CC2)o1 [Compound D1058, 5-methyl-6-(5-(4-methylpiperazin-1-yl)-1,3,4-oxadiazol-2-yl)-3-phenyl-2-(trifluoromethyl)pyrazolo[1,5-a]pyrimidin-7(4H)-one] | 20 to 250 µM
7 | Cc1[nH]c2c(-c3ccccc3)c(C(F)(F)F)nn2c(=O)c1-c1nnc(-c2ccccc2N)o1 [Compound D1082, 6-(5-(2-aminophenyl)-1,3,4-oxadiazol-2-yl)-5-methyl-3-phenyl-2-(trifluoromethyl)pyrazolo[1,5-a]pyrimidin-7(4H)-one] | 20 to 250 µM
8 | Cc1[nH]c2c(-c3ccccc3)c(C(F)(F)F)nn2c(=O)c1C(=O)Nc1cccc(OC(F)(F)F)c1 [Compound A1050, 5-methyl-7-oxo-3-phenyl-N-(3-(trifluoromethoxy)phenyl)-2-(trifluoromethyl)-4,7-dihydropyrazolo[1,5-a]pyrimidine-6-carboxamide] | 20 to 250 µM
9 | Cc1[nH]c2c(-c3ccccc3)c(C(F)(F)F)nn2c(=O)c1-c1ccc2nccn2c1 [Compound C1006, 6-(imidazo[1,2-a]pyridin-6-yl)-5-methyl-3-phenyl-2-(trifluoromethyl)pyrazolo[1,5-a]pyrimidin-7(4H)-one] | > 250 µM
10 | Cc1[nH]c2c(-c3ccccc3)c(C(F)(F)F)nn2c(=O)c1C(=O)Nc1ccccc1OC(F)(F)F [Compound A1049, 5-methyl-7-oxo-3-phenyl-N-(2-(trifluoromethoxy)phenyl)-2-(trifluoromethyl)-4,7-dihydropyrazolo[1,5-a]pyrimidine-6-carboxamide] | 20 to 250 µM
11 | Cc1[nH]c2c(-c3ccccc3)c(C#N)nn2c(=O)c1-c1nnc(C2CCCCC2)o1 [Compound D1089, 6-(5-cyclohexyl-1,3,4-oxadiazol-2-yl)-5-methyl-7-oxo-3-phenyl-4,7-dihydropyrazolo[1,5-a]pyrimidine-2-carbonitrile] | < 20 µM
12 | Cc1[nH]c2c(-c3ccccc3)c(C(F)(F)F)nn2c(=O)c1C(=O)Nc1ccccc1NS(C)(=O)=O [Compound A1022, 5-methyl-N-(2-(methylsulfonamido)phenyl)-7-oxo-3-phenyl-2-(trifluoromethyl)-4,7-dihydropyrazolo[1,5-a]pyrimidine-6-carboxamide] | < 20 µM
13 | COc1cccc2oc(-c3c(C(=O)NCCN(C)C)[nH]c4c(-c5ccccc5)c(C(F)(F)F)nn4c3=O)nc12 [Compound C1212, N-(2-(dimethylamino)ethyl)-6-(4-methoxybenzo[d]oxazol-2-yl)-7-oxo-3-phenyl-2-(trifluoromethyl)-4,7-dihydropyrazolo[1,5-a]pyrimidine-5-carboxamide] | 20 to 250 µM
14 | CC(=O)Nc1cccc(NC(=O)c2c(C)[nH]c3c(-c4ccccc4)c(C(F)(F)F)nn3c2=O)c1 [Compound A1039, N-(3-acetamidophenyl)-5-methyl-7-oxo-3-phenyl-2-(trifluoromethyl)-4,7-dihydropyrazolo[1,5-a]pyrimidine-6-carboxamide] | 20 to 250 µM
15 | COCc1[nH]c2c(-c3ccccc3)c(C(=O)O)nn2c(=O)c1-c1nc2c(OC)cccc2o1 [Compound C1090, 6-(4-methoxybenzo[d]oxazol-2-yl)-5-(methoxymethyl)-7-oxo-3-phenyl-4,7-dihydropyrazolo[1,5-a]pyrimidine-2-carboxylic acid] | 20 to 250 µM
16 | Cc1[nH]c2c(-c3ccccc3)c(C(F)(F)F)nn2c(=O)c1-c1nnc(N2CCS(=O)(=O)CC2)o1 [Compound D1068, 6-(5-(1,1-dioxidothiomorpholino)-1,3,4-oxadiazol-2-yl)-5-methyl-3-phenyl-2-(trifluoromethyl)pyrazolo[1,5-a]pyrimidin-7(4H)-one] | 20 to 250 µM

Row | SMILES | IC50
17 | COc1cccc2c1CN(c1c(C)[nH]c3c(-c4ccccc4)c(C(F)(F)F)nn3c1=O)C2=O [Compound C1220, 6-(4-methoxy-1-oxoisoindolin-2-yl)-5-methyl-3-phenyl-2-(trifluoromethyl)pyrazolo[1,5-a]pyrimidin-7(4H)-one] | 20 to 250 µM
18 | Cc1[nH]c2c(-c3ccccc3)c(C(F)(F)F)nn2c(=O)c1C(=O)Nc1ccccc1C#N [Compound A1036, N-(2-cyanophenyl)-5-methyl-7-oxo-3-phenyl-2-(trifluoromethyl)-4,7-dihydropyrazolo[1,5-a]pyrimidine-6-carboxamide] | 20 to 250 µM
19 | Cc1[nH]c2c(-c3ccccc3)c(C(F)(F)F)nn2c(=O)c1CC(=O)Nc1ccncc1 [Compound B1004, 2-(5-methyl-7-oxo-3-phenyl-2-(trifluoromethyl)-4,7-dihydropyrazolo[1,5-a]pyrimidin-6-yl)-N-(pyridin-4-yl)acetamide] | 20 to 250 µM
20 | Cc1[nH]c2c(-c3ccccc3)c(C(F)(F)F)nn2c(=O)c1C(=O)Nc1cccc(Cl)c1 [Compound A1030, N-(3-chlorophenyl)-5-methyl-7-oxo-3-phenyl-2-(trifluoromethyl)-4,7-dihydropyrazolo[1,5-a]pyrimidine-6-carboxamide] | < 20 µM
21 | Cc1[nH]c2c(-c3ccccc3)c(C(F)(F)F)nn2c(=O)c1-c1nnc(C2CCCNC2)o1 (stereo not shown) [Compound D1036, 5-methyl-3-phenyl-6-(5-(piperidin-3-yl)-1,3,4-oxadiazol-2-yl)-2-(trifluoromethyl)pyrazolo[1,5-a]pyrimidin-7(4H)-one] | 20 to 250 µM
22 | Cc1ccc(CN2CCN(C(=O)Cc3c(C)[nH]c4c(-c5ccccc5)c(C(F)(F)F)nn4c3=O)CC2)cc1 [Compound B1009, 5-methyl-6-(2-(4-(4-methylbenzyl)piperazin-1-yl)-2-oxoethyl)-3-phenyl-2-(trifluoromethyl)pyrazolo[1,5-a]pyrimidin-7(4H)-one] | > 250 µM
23 | COc1cccc2c1nc(-c1c(C)[nH]c3c(-c4ccccc4)c(C(F)(F)F)nn3c1=O)n2CC1CC1 [Compound C1189, 6-(1-(cyclopropylmethyl)-4-methoxy-1H-benzo[d]imidazol-2-yl)-5-methyl-3-phenyl-2-(trifluoromethyl)pyrazolo[1,5-a]pyrimidin-7(4H)-one] | 20 to 250 µM
24 | Cc1[nH]c2c(-c3ccccc3)c(C(F)(F)F)nn2c(=O)c1-c1nnc(C2CCCCN2C(=O)OC(C)(C)C)o1 (stereo not shown) [Compound D1045, tert-butyl 2-(5-(5-methyl-7-oxo-3-phenyl-2-(trifluoromethyl)-4,7-dihydropyrazolo[1,5-a]pyrimidin-6-yl)-1,3,4-oxadiazol-2-yl)piperidine-1-carboxylate] | 20 to 250 µM
25 | COc1ncccc1-c1nnc(-c2c(C)[nH]c3c(-c4ccccc4)c(C(F)(F)F)nn3c2=O)o1 [Compound D1064, 6-(5-(2-methoxypyridin-3-yl)-1,3,4-oxadiazol-2-yl)-5-methyl-3-phenyl-2-(trifluoromethyl)pyrazolo[1,5-a]pyrimidin-7(4H)-one] | > 250 µM
26 | COc1cccc2oc(-c3c(C)[nH]c4c(-c5ccccc5)c(OCC(=O)O)nn4c3=O)nc12 [Compound C1072, 2-((6-(4-methoxybenzo[d]oxazol-2-yl)-5-methyl-7-oxo-3-phenyl-4,7-dihydropyrazolo[1,5-a]pyrimidin-2-yl)oxy)acetic acid] | 20 to 250 µM
27 | Cc1[nH]c2c(-c3ccccc3)c(C(F)(F)F)nn2c(=O)c1C(=O)Nc1nc[nH]n1 [Compound A1040, 5-methyl-7-oxo-3-phenyl-N-(1H-1,2,4-triazol-3-yl)-2-(trifluoromethyl)-4,7-dihydropyrazolo[1,5-a]pyrimidine-6-carboxamide] | 20 to 250 µM
28 | COCC1CCCN1c1nnc(-c2c(C)[nH]c3c(-c4ccccc4)c(C(F)(F)F)nn3c2=O)o1 (stereo not shown) [Compound D1059, 6-(5-(2-(methoxymethyl)pyrrolidin-1-yl)-1,3,4-oxadiazol-2-yl)-5-methyl-3-phenyl-2-(trifluoromethyl)pyrazolo[1,5-a]pyrimidin-7(4H)-one] | 20 to 250 µM
29 | Cc1[nH]c2c(-c3ccccc3)c(C(F)(F)F)nn2c(=O)c1C(=O)Nc1ccccn1 [Compound A1017, 5-methyl-7-oxo-3-phenyl-N-(pyridin-2-yl)-2-(trifluoromethyl)-4,7-dihydropyrazolo[1,5-a]pyrimidine-6-carboxamide] | < 20 µM
30 | COc1cccc2oc(-c3c(C)[nH]c4c(-c5cccnc5)c(C(F)(F)F)nn4c3=O)nc12 [Compound C1129, 6-(4-methoxybenzo[d]oxazol-2-yl)-5-methyl-3-(pyridin-3-yl)-2-(trifluoromethyl)pyrazolo[1,5-a]pyrimidin-7(4H)-one] | 20 to 250 µM
31 | CC(=O)N1CCC(c2nnc(-c3c(C)[nH]c4c(-c5ccccc5)c(C(F)(F)F)nn4c3=O)o2)CC1 [Compound D1054, 6-(5-(1-acetylpiperidin-4-yl)-1,3,4-oxadiazol-2-yl)-5-methyl-3-phenyl-2-(trifluoromethyl)pyrazolo[1,5-a]pyrimidin-7(4H)-one] | 20 to 250 µM
